For 3 molecules, MIC results are on record in US4443436A, “C-20-Modified macrolide derivatives of the macrolide antibiotics tylosin, desmycosin, macrocin, and lactenocin” (Eli Lilly and Company, priority 1982, dated 1984).

Common to all, as to format: cell-based
For test [1], the system named is Staphylococcus epidermidis EPI2. As to the kind of experiment: MIC, standard agar-dilution assay, Staphylococcus epidermidis EPI2.
Test [2] concerns Mycoplasma gallisepticum. As to the kind of experiment: MIC, broth-dilution microtiter test, Mycoplasma gallisepticum. The settings on record: Mycoplasmoides gallisepticum; Mycoplasma gallisepticum; broth-dilution microtiter; read-out: MIC. The source says: (§1) The MIC's in Table X were obtained using conventional broth-dilution microtiter tests.
In test [3] the test system is Streptococcus pyogenes C203. Description: MIC, standard agar-dilution assay, Streptococcus pyogenes C203. The settings on record: Streptococcus pyogenes, C203.
The test system of test [4] is Staphylococcus aureus X1.1. Description: MIC, standard agar-dilution assay, Staphylococcus aureus X1.1. Conditions: Staphylococcus aureus, X1.1.
Test [5] has as its system Mycoplasma hyorhinis. As to the kind of experiment: MIC, broth-dilution microtiter test, Mycoplasma hyorhinis.
Text: as §1

Test [6] deals with Mycoplasma hyopneumoniae. As to the kind of experiment: MIC, broth-dilution microtiter test, Mycoplasma hyopneumoniae. Conditions: Mesomycoplasma hyopneumoniae; Mycoplasma hyopneumoniae; broth-dilution microtiter; read-out: MIC.
Text: as §1

The test system of test [7] is Pasteurella multocida 60A. As to the kind of experiment: MIC, broth-dilution microtiter test, Pasteurella multocida 60A. Conditions: Pasteurella multocida 60A; avian isolate; broth-dilution microtiter; read-out: MIC.
Text: as §1

For test [8], the system named is Streptococcus bovis 80. As to the kind of experiment: MIC, broth-dilution microtiter test, Streptococcus bovis 80. Conditions: Streptococcus equinus; Streptococcus bovis 80; broth-dilution microtiter; read-out: MIC.
Text: as §1

In test [9] the test system is Staphylococcus aureus S13E. Description: MIC, standard agar-dilution assay, Staphylococcus aureus S13E. Conditions: Staphylococcus aureus, S13E.
Test [10] relates to Pasteurella hemolytica 22C. As to the kind of experiment: MIC, broth-dilution microtiter test, Pasteurella hemolytica 22C. The settings on record: Pasteurella hemolytica 22C; broth-dilution microtiter; read-out: MIC.
Text: as §1

Test [11] deals with Haemophilus influenzae Holt. Description: MIC, standard agar-dilution assay, Haemophilus influenzae Holt. The settings on record: Haemophilus influenzae Holt; ampicillin-sensitive strain; read-out: MIC.
Test [12] deals with Staphylococcus epidermidis EPI1. As to the kind of experiment: MIC, standard agar-dilution assay, Staphylococcus epidermidis EPI1.
The subject of test [13] is Pasteurella multocida 17E. As to the kind of experiment: MIC, broth-dilution microtiter test, Pasteurella multocida 17E. Conditions: Pasteurella multocida 17E; bovine isolate; broth-dilution microtiter; read-out: MIC.
Text: as §1

In test [14] the test system is Haemophilus influenzae R252. As to the kind of experiment: MIC, standard agar-dilution assay, Haemophilus influenzae R252.
In test [15] the test system is Streptococcus Group 9960. As to the kind of experiment: MIC, standard agar-dilution assay, Streptococcus Group 9960. The settings on record: GROUP9960.
Test [16] concerns Staphylococcus aureus X400. As to the kind of experiment: MIC, standard agar-dilution assay, Staphylococcus aureus X400.
The subject of test [17] is Staphylococcus aureus. Description: MIC, broth-dilution microtiter test, Staphylococcus aureus.
Text: as §1

Test [18] concerns Staphylococcus aureus V41. Description: MIC, standard agar-dilution assay, Staphylococcus aureus V41. Conditions: Staphylococcus aureus, V41.
In test [19] the test system is Streptococcus Group D X66. As to the kind of experiment: MIC, standard agar-dilution assay, Streptococcus Group D X66.
In test [20] the test system is Streptococcus pneumoniae Park I. As to the kind of experiment: microbe, parasite or virus in culture.
Test [21] concerns Mycoplasma synoviae. As to the kind of experiment: MIC, broth-dilution microtiter test, Mycoplasma synoviae. Conditions: Mycoplasmopsis synoviae.
Text: as §1

Where [22] appears, read: Staphylococcus epidermidis, EPI2.
[23] abbreviates: Haemophilus influenzae R252, ampicillin-resistant strain, read-out: MIC.
Where [24] appears, read: Streptococcus Group 9960, agar dilution, read-out: MIC.
Where [25] appears, read: Mycoplasma synoviae, broth-dilution microtiter, read-out: MIC.
The mark [26] stands for this setting: Staphylococcus epidermidis, EPI1.
Where [27] appears, read: Streptococcus Group D X66, agar dilution, read-out: MIC.
Setting [28] is: Streptococcus pneumoniae Park I, agar dilution, read-out: MIC.

Values after ≈ are worked out from the molar mass of the structure shown. Where two headings read alike, the source gives them in different places.

As for `CCC1OC(=O)CC(O)C(C)C(OC2OC(C)C(OC3CC(C)(O)C(O)C(C)O3)C(N(C)C)C2O)C(CCSc2ccccc2)CC(C)C(=O)C=CC(C)=CC1COC1OC(C)C(O)C(OC)C1OC` (stereo not drawn) [Compound 6, 20-DH-DO-20-(Phenylthio)tylosin], the MIC in [1] (setting [22]) was 1 µg/mL (≈ 0.99 µM); in test [2], 0.78 µg/mL (≈ 0.772 µM); in test [3], 4 µg/mL (≈ 3.96 µM); in test [4], 1 µg/mL (≈ 0.99 µM); in [5] (Mycoplasma hyorhinis, broth-dilution microtiter, read-out: MIC), over 50 µg/mL; in test [6], over 25 µg/mL. The MIC in test [7] is over 50 µg/mL; in test [8], over 50 µg/mL; in test [9], 1 µg/mL (≈ 0.99 µM); in test [10], over 50 µg/mL; in test [11], over 128 µg/mL; in test [12] (Staphylococcus epidermidis EPI1, agar dilution, read-out: MIC), 2 µg/mL (≈ 1.98 µM). For the same molecule, the MIC was over 50 µg/mL in [13]; over 128 µg/mL in test [14] (setting [23]); over 128 µg/mL in [15] (setting [24]); 2 µg/mL (≈ 1.98 µM) in [16] (Staphylococcus aureus X400, methicillin-resistant strain, agar dilution, read-out: MIC); 3.12 µg/mL (≈ 3.09 µM) in [17]; 1 µg/mL (≈ 0.99 µM) in test [18]. In addition, the MIC in test [19] is over 128 µg/mL; in test [20] (Streptococcus pneumoniae), 64 µg/mL (≈ 63.3 µM); in test [21] (setting [25]), 12.5 µg/mL (≈ 12.4 µM).

`CCC1OC(=O)CC(O)C(C)C(OC2OC(C)C(OC3CC(C)(O)C(O)C(C)O3)C(N(C)C)C2O)C(CCOc2cc(Cl)cc(Cl)c2)CC(C)C(=O)C=CC(C)=CC1COC1OC(C)C(O)C(OC)C1OC` (stereo not drawn) [Compound 15, 20-DH-20-O-(3,5-Dichlorophenyl)tylosin]: the MIC in test [1] (setting [22]) was 1 µg/mL (≈ 0.941 µM); in test [2] it was 1.56 µg/mL (≈ 1.47 µM); in [3] it was 1 µg/mL (≈ 0.941 µM); in test [4], 1 µg/mL (≈ 0.941 µM); in test [5] (Mycoplasma) it was 50 µg/mL (≈ 47 µM); in test [6], over 25 µg/mL. In addition, the MIC in test [7] is over 50 µg/mL; in [8] it was 6.25 µg/mL (≈ 5.88 µM); in [9] it was 1 µg/mL (≈ 0.941 µM); in test [10], over 50 µg/mL; in [11] it was over 128 µg/mL; in test [12] (setting [26]), 2 µg/mL (≈ 1.88 µM). The MIC in test [13] is over 50 µg/mL; in [14] (setting [23]), over 128 µg/mL; in test [15] (setting [24]) it was over 128 µg/mL; in test [16] (Staphylococcus aureus, X400), 4 µg/mL (≈ 3.76 µM); in test [17] (broth-dilution microtiter, read-out: MIC), 1.56 µg/mL (≈ 1.47 µM); in test [18], 2 µg/mL (≈ 1.88 µM). Also, the MIC in [19] (setting [27]) was over 128 µg/mL; in [20] (setting [28]) it was 16 µg/mL (≈ 15.1 µM); in test [21] (setting [25]), 3.12 µg/mL (≈ 2.93 µM).

Turning to `CCC1OC(=O)CC(O)C(C)C(OC2OC(C)C(OC3CC(C)(O)C(O)C(C)O3)C(N(C)C)C2O)C(CCOc2ccc([N+](=O)[O-])cc2)CC(C)C(=O)C=CC(C)=CC1COC1OC(C)C(O)C(OC)C1OC` (stereo not drawn) [Compound 12, 20-DH-20-O-(p-Nitrophenyl)tylosin], the MIC in test [1] (Staphylococcus epidermidis EPI2, agar dilution, read-out: MIC) was 0.5 µg/mL (≈ 0.481 µM); in test [2], 0.39 µg/mL (≈ 0.375 µM); in test [3], 2 µg/mL (≈ 1.92 µM); in [4], 1 µg/mL (≈ 0.962 µM); in test [5] (Mycoplasma) it was 50 µg/mL (≈ 48.1 µM); in test [6], over 25 µg/mL. The MIC in [7] was over 50 µg/mL; in test [8], 25 µg/mL (≈ 24.1 µM); in test [9], 1 µg/mL (≈ 0.962 µM); in test [10], over 50 µg/mL; in test [11], over 128 µg/mL; in test [12] (setting [26]), 1 µg/mL (≈ 0.962 µM). For the same molecule, the MIC is over 50 µg/mL in [13]; 128 µg/mL (≈ 123 µM) in test [14] (Haemophilus influenzae, R252); over 128 µg/mL in test [15]; 2 µg/mL (≈ 1.92 µM) in test [16] (Staphylococcus aureus, X400); 1.56 µg/mL (≈ 1.5 µM) in [17]; 1 µg/mL (≈ 0.962 µM) in test [18]. Further, the MIC in test [19] (setting [27]) was 128 µg/mL (≈ 123 µM); in test [20] (setting [28]) it was 16 µg/mL (≈ 15.4 µM); in [21], 1.56 µg/mL (≈ 1.5 µM).
